Data as given in the supplement of paper PMC8882468.

How the values were obtained:
Test in all cases: CTG-3D luminescence at 96 h relative to day-0 seeding control (ratio to day 0); higher = more growth / less cytotoxicity; PDxO 3D drug screen, 96 h, CTG-3D normalised to day-0 seeding control.
HCI-017.E2 = test system: HCI-017.E2 (organoid from an ER-positive breast cancer xenograft)
HCI-023 = test system: HCI-023 (organoid from a triple-negative breast cancer xenograft)
HCI-027 = test system: HCI-027 (organoid from a triple-negative breast cancer xenograft)
HCI-008 = test system: HCI-008 (organoid from a HER2-enriched breast cancer xenograft)
MDA-MB-231 = test system: MDA-MB-231
HCI-010 = test system: HCI-010 (organoid from a breast cancer xenograft)
HCI-015 = test system: HCI-015 (organoid from a triple-negative breast cancer xenograft)

CC1(C)CCC(c2ccc(Cl)cc2)=C(CN2CCN(c3ccc(C(=O)NS(=O)(=O)c4ccc(N[C@H](CCN5CCOCC5)CSc5ccccc5)c(S(=O)(=O)C(F)(F)F)c4)cc3)CC2)C1 [navitoclax]
CTG-3D luminescence at 96 h
Settings | 12.5 pM | 0.00025 µM | 0.005 µM | 0.1 µM | 1 µM | 10 µM | 100 µM | 625 fM
HCI-017.E2 | 1.6 | 2 | 1.8 | 1.81 | 1.78 | 1.7 | 0.043 | 1.812
MDA-MB-231 | 4.52 | 4.44 | 4.56 | 4.28 | 3.8 | 1.42 | 0.000199 | 4.6

CTG-3D luminescence at 96 h
Settings | 12.5 pM | 0.00025 µM | 0.005 µM | 0.1 µM | 1 µM | 10 µM | 100 µM | 625 fM
HCI-008, days in culture: 228 | 1.53 | 1.62 | 1.55 | 1.61 | 1.2 | 0.854 | 0.0594 | 1.77
HCI-008, days in culture: 244 | 1.31 | 1.99 | 1.94 | 2.06 | 1.57 | 0.824 | 0.0293 | 2.52
HCI-010, days in culture: 52 | 2.01 | 2.27 | 2.15 | 0.695 | 0.0507 | 0.0304 | 0.0084 | 2.13
HCI-010, days in culture: 65 | 1.61 | 1.66 | 1.65 | 0.573 | 0.026 | 0.0135 | 0.00305 | 1.8
HCI-010, days in culture: 103 | 3.2 | 3.28 | 3.13 | 1.08 | 0.0477 | 0.0368 | 0.0191 | 2.7
HCI-015, days in culture: 172 | 2.17 | 2.01 | 2.2 | 1.82 | 1.99 | 1.61 | 0.429 | 2.6
HCI-015, days in culture: 191 | 2.56 | 1.7 | 2 | 1.59 | 1.87 | 1.01 | 0.399 | 1.61
HCI-015, days in culture: 218 | 1.72 | 1.53 | 1.74 | 1.59 | 1.64 | 1.63 | -0.117 | 1.97
HCI-017.E2, days in culture: 85 | 2.05 | 1.26 | 2.18 | 1.93 | 1.57 | 1.98 | 0.14 | 1.51
HCI-023, days in culture: 111 | 1.82 | 1.42 | 1.19 | 1.26 | 0.739 | 0.432 | 0.0151 | 1.83
HCI-023, days in culture: 128 | 1.58 | 1.8 | 1.53 | 1.82 | 1.1 | 0.995 | 0.00828 | 1.58
HCI-027, days in culture: 176 | 2.47 | 2.17 | 3.4 | 1.89 | 2.39 | 1.32 | -0.194 | 3.28
HCI-027, days in culture: 194 | 2.18 | 1.78 | 2.01 | 2.17 | 2.24 | 1.75 | 0.198 | 2.27
HCI-027, days in culture: 201 | 3.21 | 2.62 | 3.27 | 3.18 | 2.73 | 1.5 | 0.0321 | 2.76

NC(=O)c1cccc2cn(-c3ccc([C@@H]4CCCNC4)cc3)nc12 [niraparib]
CTG-3D luminescence at 96 h
Settings | 12.5 pM | 0.00025 µM | 0.005 µM | 0.1 µM | 1 µM | 10 µM | 100 µM | 625 fM
HCI-017.E2 | 1.823 | 1.66 | 1.89 | 1.61 | 1.48 | 1.58 | 0.00319 | 1.94
MDA-MB-231 | 4.51 | 4.46 | 4.51 | 4.46 | 4.41 | 3.96 | 0.00282 | 4.58

CTG-3D luminescence at 96 h
Settings | 12.5 pM | 0.00025 µM | 0.005 µM | 0.1 µM | 1 µM | 10 µM | 100 µM | 625 fM
HCI-008, days in culture: 228 | 1.87 | 1.97 | 1.45 | 1.55 | 1.34 | 0.828 | 0.00065 | 1.72
HCI-008, days in culture: 244 | 1.42 | 1.98 | 1.91 | 2.31 | 1.77 | 1.17 | -0.000168 | 2.42
HCI-010, days in culture: 52 | 1.94 | 2.41 | 2.17 | 2.55 | 2.02 | 0.332 | 0.006 | 2.06
HCI-010, days in culture: 65 | 1.44 | 1.78 | 1.88 | 1.63 | 1.54 | 0.382 | 0.000688 | 1.62
HCI-010, days in culture: 103 | 3.06 | 3.18 | 3.13 | 3.19 | 2.67 | 0.397 | 0.00829 | 2.94
HCI-015, days in culture: 172 | 2.77 | 1.86 | 2.64 | 1.3 | 0.847 | 0.199 | -0.107 | 2.29
HCI-015, days in culture: 191 | 2.28 | 1.35 | 1.72 | 1.06 | 1.12 | 0.29 | -0.000426 | 1.59
HCI-015, days in culture: 218 | 2.06 | 1.35 | 1.71 | 1.25 | 0.615 | -0.0786 | -0.35 | 1.94
HCI-017.E2, days in culture: 85 | 2.25 | 2.22 | 2.21 | 2.63 | 2.09 | 1.81 | 0.00236 | 1.95
HCI-023, days in culture: 111 | 1.92 | 1.44 | 1.58 | 1.16 | 0.886 | 0.393 | -0.00664 | 1.85
HCI-023, days in culture: 128 | 1.57 | 1.57 | 1.61 | 1.42 | 0.892 | 0.695 | 0.00157 | 1.67
HCI-027, days in culture: 176 | 3.12 | 1.73 | 3.18 | 2.13 | 1.7 | 0.11 | -0.239 | 3.68
HCI-027, days in culture: 194 | 2.35 | 1.82 | 2.05 | 2.39 | 1.88 | 0.735 | -0.0845 | 2.19
HCI-027, days in culture: 201 | 3.32 | 3.11 | 3.01 | 2.94 | 1.55 | 0.457 | -0.0215 | 2.7
